Test results published in patent US20260285846A1, “REV-ERB AGONISTS FOR TH17-MEDIATED INFLAMMATORY DISORDERS” (UNIVERSITY OF FLORID RESEARCH FOUNDATION, iNCORPORATED, priority 2021, published 2026).

Target: REV-ERBα LBD (Homo sapiens, UniProt P20393, DEL324-422)
Experiment: biochemical
Conditions: FRET assay; 6xHistag-REV-ERBα LBD with FITC-labeled SMRT corepressor peptide; read-out: REVERBα (Agonism of REV-ERBα, EC50)
Procedure: TR-FRET corepressor interaction assay. The time-resolved fluorescence resonance energy transfer (TR-FRET) assay was performed in black low-volume 384-well plates (Greiner). Each well contained 4 nM 6×Histag-REV-ERBα LBD (human; residues 281-614 A324-422) or 6×Histag-REV-ERBα LBD (human; residues 381-579) protein expressed in and purified from Escherichia coli using nickel affinity and size exclusion chromatography; 1 nM LanthaScreen Elite Tb-anti-HIS Antibody (Thermo Fisher Scientific); and 400 nM FITC-labeled peptide derived from the SMRT corepressor ([…]) containing a N-terminal FITC label with a six-carbon linker (Ahx) and an amidated C-terminus for stability (synthesized by LifeTein) in TR-FRET buffer (20 mM potassium phosphate, pH 7.4, 50 mM potassium chloride, 1 mM dithiothreitol, and 0.005% Tween-20). Ligand stocks were prepared via serial dilution in DMSO, added to wells in triplicate, and plates were incubated at 4° C. for 2 h and read using a BioTek Synergy Neo multimode plate reader. The Tb donor was excited at 340 nm; its fluorescence emission was monitored at 495 nm, and the acceptor FITC emission was measured at 520 nm; and the TR-FRET ratio was calculated as the signal at 520 nm divided by the signal at 495 nm. Data were plotted using GraphPad Prism as TR-FRET ratio vs. ligand concentration and fit to sigmoidal dose response curve equation.
Exemplary compounds of the present disclosure were assayed as described above to assess agonism of REV-ERBα. Results of the FRET assay are shown in Table 2 below (A: EC50<100 nM; B: EC50 100 nM-1000 nM; C: EC50>1000 nM; NT: not tested).

Chain of REV-ERBα LBD (P20393 with tags, fused parts or gaps DEL324-422): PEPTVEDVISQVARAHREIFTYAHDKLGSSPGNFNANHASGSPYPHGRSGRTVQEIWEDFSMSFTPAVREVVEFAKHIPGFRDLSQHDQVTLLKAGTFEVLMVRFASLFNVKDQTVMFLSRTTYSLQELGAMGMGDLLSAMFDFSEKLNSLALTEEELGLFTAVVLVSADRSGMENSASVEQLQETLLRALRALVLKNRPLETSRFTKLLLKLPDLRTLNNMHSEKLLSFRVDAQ
Chain of REV-ERBα LBD (Q9Y618 2335-2356 partner limits assumed): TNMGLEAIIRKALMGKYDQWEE

Row | Structure (SMILES) | EC50 [nM]
1 | CC(C)(C)Cn1cc([C@H](NS(=O)(=O)C2CC2)C(F)(F)F)c2ccc(-c3ccccc3C#N)nc21 [Compound 1, (S)—N-(1-(6-(2-cyanophenyl)-1-neopentyl-1H-pyrrolo[2,3-b]pyridin-3-yl)-2,2,2-trifluoroethyl)cyclopropanesulfonamide] | 100 to 1000
2 | CC(C)(C)Cn1cc([C@H](NS(=O)(=O)C2CC2)C(F)(F)F)c2ccc(-c3cc(F)ccc3C#N)cc21 [Compound 2, (S)—N-(1-(6-(2-cyano-5-fluorophenyl)-1-neopentyl-1H-indol-3-yl)-2,2,2-trifluoroethyl)cyclopropanesulfonamide] | 100 to 1000
3 | CC(C)(C)Cn1cc([C@H](NS(=O)(=O)C2CC2)C(F)(F)F)c2ccc(-c3cc(F)ccc3C(F)(F)F)cc21 [Compound 3, (S)—N-(2,2,2-trifluoro-1-(6-(5-fluoro-2-(trifluoromethyl)phenyl)-1-neopentyl-1H-indol-3-yl)ethyl)cyclopropanesulfonamide] | < 100
4 | CC(C)(C)Cn1cc([C@H](NS(=O)(=O)C2CC2)C(F)F)c2ccc(-c3ccc(F)cc3C(F)(F)F)nc21 [Compound 4, (S)—N-(2,2-difluoro-1-(6-(4-fluoro-2-(trifluoromethyl)phenyl)-1-neopentyl-1H-pyrrolo[2,3-b]pyridin-3-yl)ethyl)cyclopropanesulfonamide] | < 100
5 | CC(C)(C)Cn1cc([C@H](NS(=O)(=O)C2CC2)C(F)(F)F)c2cc(F)c(-c3ccccc3OC(F)(F)F)cc21 [Compound 5, (S)—N-(2,2,2-trifluoro-1-(5-fluoro-1-neopentyl-6-(2-(trifluoromethoxy)phenyl)-H-indol-3-yl)ethyl)cyclopropanesulfonamide] | < 100
6 | COc1cccc(C#N)c1-c1ccc2c([C@H](NS(=O)(=O)C3CCC3)C(F)(F)F)cn(CC(C)(C)C)c2c1 [Compound 6, (S)—N-(1-(6-(2-cyano-6-methoxyphenyl)-1-neopentyl-1H-indol-3-yl)-2,2,2-trifluoroethyl)cyclobutanesulfonamide] | 100 to 1000
7 | COc1cccc(C#N)c1-c1ccc2c([C@H](NS(=O)(=O)C3CC3)C(F)(F)F)cn(CC(C)(C)C)c2c1 [Compound 7, (S)—N-(1-(6-(2-cyano-6-methoxyphenyl)-1-neopentyl-1H-indol-3-yl)-2,2,2-trifluoroethyl)cyclopropanesulfonamide] | 100 to 1000
8 | CC(C)(C)Cn1cc([C@H](NS(=O)(=O)C2CC2)C(F)(F)F)c2cc(F)c(-c3cccnc3C(F)(F)F)cc21 [Compound 8, (S)—N-(2,2,2-trifluoro-1-(5-fluoro-1-neopentyl-6-(2-(trifluoromethyl)pyridin-3-yl)-1H-indol-3-yl)ethyl)cyclopropanesulfonamide] | 100 to 1000
9 | CC(C)(C)Cn1cc([C@H](NS(=O)(=O)C2CC2)C(F)(F)F)c2cc(F)c(-c3ncccc3C(F)(F)F)cc21 [Compound 9, (S)—N-(2,2,2-trifluoro-1-(5-fluoro-1-neopentyl-6-(3-(trifluoromethyl)pyridin-2-yl)-1H-indol-3-yl)ethyl)cyclopropanesulfonamide] | 100 to 1000
10 | CC(C)(C)Cn1cc([C@H](NS(=O)(=O)C2CC2)C(F)(F)F)c2cc(F)c(-c3ncccc3C#N)cc21 [Compound 10, (S)—N-(1-(6-(3-cyanopyridin-2-yl)-5-fluoro-1-neopentyl-1H-indol-3-yl)-2,2,2-trifluoroethyl)cyclopropanesulfonamide] | 100 to 1000
11 | CC(C)(C)Cn1cc([C@H](NS(=O)(=O)C2CC(F)(F)C2)C(F)F)c2ccc(-c3ccccc3C(F)(F)F)cc21 [Compound 11, (S)—N-(2,2-difluoro-1-(1-neopentyl-6-(2-(trifluoromethyl)phenyl)-1H-indol-3-yl)ethyl)-3,3-difluorocyclobutane-1-sulfonamide] | < 100
12 | Cc1ccccc1-c1cc2c(cc1F)c([C@H](NS(=O)(=O)C1CC1)C(F)F)cn2CC(C)(C)C [Compound 12, (S)—N-(2,2-difluoro-1-(5-fluoro-1-neopentyl-6-(o-tolyl)-1H-indol-3yl)ethyl)cyclopropanesulfonamide] | < 100
